Data from publication PMC8151329, “Modulation of γ-Secretase Activity by a Carborane-Based Flurbiprofen Analogue” (Molecules, 2021).
Read-outs that look alike come from different tables or passages of the source.

Experiments:
HT29 = test: MTT cytotoxicity test HT29; type: cell-based, human; details: HT29, 48 h, up to 100 µM, mean ± SD
Procedure: (§1) The used human tumour (i.e., melanoma A375, colon cancer HCT116 and HT29, and glioblastoma LN229 and U251) and rodent tumour (i.e., mouse melanoma B16 and B16–F10; rat glioma C6) cell lines as well as murine transformed non-malignant fibroblast cell line NIH/3T3 differed in their rates of COX-1 and COX-2 expression.
(§2) Cytotoxicity was determined by conducting MTT and CV assays using cell viability as an indicator [67]. All measurements were carried out in triplicates.

B16–F10 = test: MTT cytotoxicity test B16–F10; type: cell-based, mouse; details: B16–F10, 48 h, up to 100 µM, mean ± SD
Procedure: as §1, §2

NIH/3T3 = test: MTT cytotoxicity test NIH/3T3; type: cell-based, mouse; details: NIH/3T3, 48 h, up to 100 µM, mean ± SD
Procedure: as §1, §2

ovine COX-1 = molecular target: T1, ovine COX-1 (Ovis aries, UniProt P05979); test: COX Fluorescent Inhibitor Screening Assay Kit, COX-1; type: biochemical
T1 construct: purchased Cayman Chemical Company 700100
T1 sequence (P05979 25-600): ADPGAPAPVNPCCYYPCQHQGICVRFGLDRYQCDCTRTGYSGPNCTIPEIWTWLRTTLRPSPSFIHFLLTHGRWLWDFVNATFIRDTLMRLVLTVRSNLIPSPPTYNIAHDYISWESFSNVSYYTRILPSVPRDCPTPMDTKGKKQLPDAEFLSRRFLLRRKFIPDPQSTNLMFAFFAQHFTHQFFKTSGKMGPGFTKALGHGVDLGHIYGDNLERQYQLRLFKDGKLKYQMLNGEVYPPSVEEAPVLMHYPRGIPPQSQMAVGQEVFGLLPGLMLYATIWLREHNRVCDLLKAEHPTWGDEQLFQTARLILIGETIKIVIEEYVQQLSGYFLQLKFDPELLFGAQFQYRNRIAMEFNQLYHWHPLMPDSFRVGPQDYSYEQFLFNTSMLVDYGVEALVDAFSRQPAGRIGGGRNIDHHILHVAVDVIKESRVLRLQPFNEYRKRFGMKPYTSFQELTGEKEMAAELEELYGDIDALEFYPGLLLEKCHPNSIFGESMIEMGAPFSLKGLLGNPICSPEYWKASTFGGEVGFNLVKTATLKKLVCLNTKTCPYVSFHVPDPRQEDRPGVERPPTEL
Procedure: In this work, 100 µM arachidonic acid was applied according to the manufacturer’s instructions for the “COX Fluorescent Inhibitor Screening Assay Kit”.

HCT116 = test: MTT cytotoxicity test HCT116; type: cell-based, human; details: HCT116, 48 h, up to 100 µM, mean ± SD
Procedure: as §1, §2

A375 = test: MTT cytotoxicity test A375; type: cell-based, human; details: A375, 48 h, up to 100 µM, mean ± SD
Procedure: as §1, §2

U251 = test: MTT cytotoxicity test U251; type: cell-based, human; details: U251, 48 h, up to 100 µM, mean ± SD
Procedure: as §1, §2

logD7.4 by HPLC method = type: physicochemical; details: pH 7.4
Excerpt: The measured variances in logD7.4 measurements between the two compounds and the two methods lie in the typical range of the method, and both compounds can be seen as equally hydrophobic. This confirms that the replacement of a phenyl ring with a carborane moiety indeed increased the hydrophobicity and could therefore result in an increased BBB penetration of compound 5 compared to flurbiprofen.
In both cases, the eluent consisted of methanol and a 0.01 M phosphate buffer (pH = 7.4); the applied gradient was 0 min at 70% methanol, 10 min at 100% methanol, 20 min at 100% methanol at a flow rate of 0.6 mL/min.

LN229 = test: MTT cytotoxicity test LN229; type: cell-based, human; details: LN229, 48 h, up to 100 µM, mean ± SD
Procedure: as §1, §2

B16 = test: MTT cytotoxicity test B16; type: cell-based, mouse; details: B16, 48 h, up to 100 µM, mean ± SD
Procedure: as §1, §2

C6 = test: MTT cytotoxicity test C6; type: cell-based, rat; details: C6, 48 h, up to 100 µM, mean ± SD
Procedure: as §1, §2

human COX-2 = molecular target: T2, human COX-2 (Homo sapiens, UniProt P35354); test: COX Fluorescent Inhibitor Screening Assay Kit, COX-2; type: biochemical
T2 construct: purchased Cayman Chemical Company 700100
T2 sequence (P35354 18-604): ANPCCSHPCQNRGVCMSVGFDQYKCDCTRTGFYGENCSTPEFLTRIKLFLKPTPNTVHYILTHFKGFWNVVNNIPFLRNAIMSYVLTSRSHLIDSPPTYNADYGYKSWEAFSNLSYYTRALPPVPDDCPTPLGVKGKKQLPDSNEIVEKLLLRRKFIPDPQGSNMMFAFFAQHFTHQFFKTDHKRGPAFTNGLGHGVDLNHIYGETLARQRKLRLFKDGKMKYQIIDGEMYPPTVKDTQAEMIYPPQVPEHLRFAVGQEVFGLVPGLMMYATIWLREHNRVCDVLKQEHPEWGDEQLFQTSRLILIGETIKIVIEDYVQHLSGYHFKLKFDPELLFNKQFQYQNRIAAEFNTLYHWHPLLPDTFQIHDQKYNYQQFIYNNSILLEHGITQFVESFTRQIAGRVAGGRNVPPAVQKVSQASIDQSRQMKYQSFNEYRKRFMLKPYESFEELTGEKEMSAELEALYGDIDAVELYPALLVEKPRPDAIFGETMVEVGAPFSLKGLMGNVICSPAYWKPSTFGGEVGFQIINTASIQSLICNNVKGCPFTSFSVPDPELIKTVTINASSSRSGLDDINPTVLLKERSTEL

γ-secretase = molecular target: T3, γ-secretase (Homo sapiens, UniProt P49768); type: cell-based; details: HEK/sw cells
T3 construct: endogenous in cells; host or cells: HEK293 cells stably overexpressing Swedish-mutant APP (HEK/sw)
Procedure: The γ-secretase modulator (GSM) activity of compound 5 was tested on human embryonic kidney (HEK) 293 cells stably overexpressing ”Swedish mutant” APP (HEK/sw), a well-established cell culture model to assess GSM activity. The effect of compound 5 on Aβ production was analysed in comparison to flurbiprofen over a relevant and cell tolerable concentration range (Figure 1).
Nearly confluent (80%) HEK/sw cells were treated with the indicated concentrations of compound 5 or flurbiprofen ((±)-2-fluoro-α-methyl-4-biphenylacetic acid; F8514, Sigma–Aldrich, St. Louis, MO, USA) as described before. Cells treated with DMSO or 1 µM GSM-1 were used as negative and positive controls, respectively. After overnight treatment, the conditioned medium was collected, cleared by centrifugation (10 min, 4 °C, 16,000× g), and the levels of secreted Aβ38, Aβ40, and Aβ42 were analysed using an established Aβ species-specific sandwich immunoassay purchase from Meso Scale Discovery (MSD, Rockville, MD, USA).

[1] = parameters: method as in PMID 25513709; details: shake flask; cited from earlier work
[2] = enzyme-based assay, result in words

inhibitory activity on COX-1 (ovine COX-1; [2]) | IC50 (ovine COX-1; ovine COX-1, fluorescence kit, 100 µM arachidonic acid, read-out: IC50 inhibition of COX-1) [µM] | logD7.4 (logD7.4 by HPLC method; HPLC method 1: Chromolith Speed ROD RP-18E 50) | logD7.4 (logD7.4 by HPLC method; HPLC method 2 (standard conditions): Asahipak ODP-50 4B 4.6 × 50) | inhibitory activity on COX-2 (human COX-2; [2]) | IC50 (human COX-2; human COX-2, fluorescence kit, 100 µM arachidonic acid, read-out: IC50 inhibition of COX-2) [µM] | sum of all measured Aβ species (Aβ38, Aβ40 and Aβ42) vs DMSO control (γ-secretase; 150 µM) | effect on Aβ42:Aβ40 ratio (γ-secretase; extracellular Aβ) | ratio of short Aβ38 to longer Aβ42 (γ-secretase processivity) (γ-secretase; overnight treatment) | effect on Aβ42 (ratio of total Aβ) (γ-secretase; overnight treatment, conditioned medium) | Molecule | IC50 (HT29) [µM] | IC50 (B16–F10) [µM] | IC50 (NIH/3T3) [µM] | IC50 (HCT116) [µM] | IC50 (A375) [µM] | IC50 (U251) [µM] | IC50 (LN229) [µM] | IC50 (B16) [µM] | IC50 (C6) [µM] | logD7.4 [1]
No inhibitory activity | > 100 | 2.00 | 1.86 | No inhibitory activity | > 100 | did not decrease significantly | lowering | increased | clear dose-dependent decrease | 2-[4-(1,7-Dicarba-closo-dodecaboran-9-yl(12))phenyl]propionic acid [Compound 5] | > 100 | 74.7 ± 0.9 | 90 ± 10 | > 100 | 96 ± 5.9 | 77.5 ± 7.2 | 95 ± 7.1 | 79 ± 2.4 | 92.8 ± 4.8 | 
 |  |  |  |  |  |  |  |  |  | CC(C(=O)O)c1ccc(-c2ccccc2)c(F)c1 (racemic) [Flurbiprofen, (±)-2-fluoro-α-methyl-4-biphenylacetic acid] |  |  |  |  |  |  |  |  |  | 0.91
